Results on 16 compounds are retold here after US20050148534A1, “Small molecule compositions and methods for increasing drug efficiency using compositions thereof” (priority 2003, published 2005).

SMILES strings stand for the structures.

Assay [1] concerns the target T1, deoxyguanosine kinase (dGK) (Homo sapiens, UniProt Q16854).
T1 sequence (Q16854 40-277): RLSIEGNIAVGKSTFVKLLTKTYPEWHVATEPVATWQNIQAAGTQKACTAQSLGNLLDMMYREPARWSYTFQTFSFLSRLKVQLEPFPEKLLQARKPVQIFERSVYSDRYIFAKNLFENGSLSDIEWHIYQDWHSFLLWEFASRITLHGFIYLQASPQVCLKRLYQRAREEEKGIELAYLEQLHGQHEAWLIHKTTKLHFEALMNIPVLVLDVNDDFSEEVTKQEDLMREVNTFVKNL
The note with it: substrate activity; literature (Johansson et al.); cited from earlier work.

Assay [2] concerns the target deoxycytidine kinase (dCK) (Homo sapiens, UniProt P27707). The conditions noted are these: substrate activity; literature (Johansson et al.; Eriksson et al.; Wang et al.), source per Table 3; cited from earlier work.
Assay [3] concerns the target T2, Human thymidine kinase 1 (TK1) (Homo sapiens, UniProt P04183).
T2 construct: His tag (from pET28b(+)) (N); made in house; host or cells: E. coli BL21-codon plus
T2 sequence (P04183 1-234): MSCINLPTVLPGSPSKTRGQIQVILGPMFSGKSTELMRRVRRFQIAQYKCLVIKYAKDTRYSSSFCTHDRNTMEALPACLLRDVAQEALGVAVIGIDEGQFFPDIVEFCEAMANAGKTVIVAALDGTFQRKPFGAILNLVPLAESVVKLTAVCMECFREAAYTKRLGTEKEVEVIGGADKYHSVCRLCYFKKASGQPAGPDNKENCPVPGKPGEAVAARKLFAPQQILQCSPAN
Nature of the assay: Thymidine kinase coupled (kinetic) ATP depletion assay. The note with it: initial velocity relative to thymidine; 100 μM conjugate. It counts as biochemical. As for the experimental part: Thymidine kinase, viral thymidine kinase, TK-1 deoxycytidine kinase, and deoxyguanosine kinase activities are determined by subjecting a first end of a linker used in synthesizing linker-substrate constructs to a first test. The first test may involve observing ADP formation, an obligatory co-product of phospho group transfer from ATP which is catalyzed by the kinase to the C5′ hydroxyl group or its equivalent in the nucleoside or nucleoside analog. Formation of ADP is followed by a coupled enzyme assay well known in the art. ADP, formed from kinase phosphorylation, is used by pyruvate kinase to generate pyruvate from phosphoenolpyruvate which in turn is converted to lactate by lactate dehydrogenase. The lactate results in the consumption of NADH which is followed spectrophotometrically. The rate of nucleoside phosphorylation is then directly related to the rate of decrease in the observed NADH signal.
TK1 was amplified using PCR with forward primer 5′-[…]-3′ and reverse primer 5′-[…]-3′. The PCR product was digested with Nde I and Hind III. An N-terminal His-tagged TK1 construct, TK1/pET28b(+), was generated by subcloning TK1 into the Nde I and Hind III sites of prokaryotic expression vector pET28b (+) (Novagen, San Diego, Calif.). TK1 was expressed from TK1/pET28b(+) using E. coli strain BL21-codon plus (Stratagene, San Diego, Calif.) and purified by Ni column chromatography.
A coupled (kinetic) ATP depletion assay was developed to measure thymidine kinase activity. The reaction contained 100 mM Tris HCl, pH 7.5, 20 mM MgCl2, 100 mM KCl, 0.4 mM PEP, 0.2 mM NADH, Pyruvate Kinase (0.7 units)/Lactate Dehydrogenase (1.0 unit) (Sigma #PO294), 2.5-10 μg Thymidine Kinase, 100 μM thymidine or thymidine-drug conjugate in a volume of 75 μl. ATP (5 mM in 25 μl H2O) was added to initiate the reaction and the velocity of ATP depletion was monitored at 340 nm continuously for 15 minutes.

The subject of a further assay is tubulin. In words: Fluorescence-based microtubule polymerization assay (MPA). The conditions noted are these: mean percentage of paclitaxel or vinblastine activity; 0.75-10 micromolar. It is filed as biochemical. From the text:
Drug-linker constructs may further be screened using functional assays predictive of biological activity. […] Tubulin assembly or inhibition thereof may be monitored by fluorescence using the CytoDYNAMIX Screen™ 10 kit available from Cytoskeleton (1830 S. Acoma St., Denver, Colo.). […] Emission is monitored at 405 nm with excitation at 360 nm. […] Tubulin assembly or inhibition may also be monitored by light scattering which is approximated by the apparent absorption at 350 nm. For paclitaxel drug conjugates BSA is employed to prevent aggregation and glycerol, which is a tubulin polymerization enhancer, is omitted from the kit to increase the signal to noise ratio.
The assay kit (#BK011) was purchased from Cytoskeleton (Denver, Colo.). The assays were carried out according to the manufacturer's instructions, except that 1 mg/ml BSA (Sigma #A3059) was included in all assays. […] Parent drugs and conjugates were tested at 0.75, 1.5, 3 and 10 micromolar final concentration and results represent a comparison of conjugate and parent drug curves obtained from the linear range of the dose responses.

deoxycytidine kinase (dCK), sequence (P27707 whole entry, species assumed): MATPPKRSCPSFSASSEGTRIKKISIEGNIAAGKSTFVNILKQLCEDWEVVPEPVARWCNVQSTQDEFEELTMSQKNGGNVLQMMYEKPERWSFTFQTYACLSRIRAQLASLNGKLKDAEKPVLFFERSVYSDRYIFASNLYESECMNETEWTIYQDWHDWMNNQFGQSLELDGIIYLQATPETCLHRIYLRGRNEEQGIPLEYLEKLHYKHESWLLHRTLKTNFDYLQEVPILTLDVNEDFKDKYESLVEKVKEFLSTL

As for `Nc1ncnc2c1ccn2[C@H]1C[C@H](O)[C@@H](CO)O1`, the dGK in assay [1] is 100. The dCK in assay [2] was 50.
In the case of `O=c1[nH]cnc2c1ncn2C1OC(CO)C(O)C1O` (stereo not shown), the dGK in assay [1] is recorded as 290.
With `Nc1ncnc2c1ncn2[C@@H]1O[C@H](CO)[C@@H](O)[C@@H]1O` [AraA], the dGK in assay [1] was 15. Further, in assay [2], the dCK is 50.
In the case of `Nc1nc2c(ncn2[C@@H]2O[C@H](CO)[C@@H](O)[C@@H]2O)c(=O)[nH]1` [AraG], the dGK in assay [1] is 180. Moreover, the dCK in assay [2] was 6.
Regarding `CC(=O)O[C@@]12CO[C@@H]1C[C@H](O)[C@@]1(C)C(=O)[C@H](OC(=O)NCCOCCn3c(=O)c(C)cn([C@@H]4C[C@H](O)[C@@H](CO)O4)c3=O)C3=C(C)[C@@H](OC(=O)[C@H](O)[C@@H](NC(=O)c4ccccc4)c4ccccc4)C[C@@](O)([C@@H](OC(=O)c4ccccc4)[C@H]21)C3(C)C` [PXL-10Ca-PEG(5)-N3-αTHY], in assay [3], the “Ave. TK1 Kinase Act.” value was “A (A<20)”. In the assay with tubulin, the “Ave. MPA Act” value was “B (B=60-100)”.
The like results for `CC(=O)O[C@@]12CO[C@@H]1C[C@H](O)[C@@]1(C)C(=O)[C@H](OC(=O)NCCOCCOCCOCCn3c(=O)c(C)cn([C@@H]4C[C@H](O)[C@@H](CO)O4)c3=O)C3=C(C)[C@@H](OC(=O)[C@H](O)[C@@H](NC(=O)c4ccccc4)c4ccccc4)C[C@@](O)([C@@H](OC(=O)c4ccccc4)[C@H]21)C3(C)C` [PXL-10Ca-PEG(11)-N3-αTHY] were, in that order, “A (A<20)” and “B (B=60-100)”.
Consider `CC[C@]1(O)C[C@@H]2CN(CCc3c([nH]c4ccccc34)[C@@](C(=O)OC)(c3cc4c(cc3OC)N(C)[C@H]3[C@@](O)(C(=O)NCCCn5c(=O)c(C)cn([C@H]6C[C@H](O)[C@@H](CO)O6)c5=O)[C@H](O)[C@]5(CC)C=CCN6CC[C@]43[C@@H]65)C2)C1` [VBL-3Am-ALK(3)-N3-THY], for which the “Ave. TK1 Kinase Act.” value in assay [3] is “A (A<20)”. For the same compound, the “Ave. MPA Act” value in the assay on tubulin is “C (C>100)”.
For `CC[C@]1(O)C[C@@H]2CN(CCc3c([nH]c4ccccc34)[C@@](C(=O)OC)(c3cc4c(cc3OC)N(C)[C@H]3[C@@](O)(C(=O)NCCCCn5c(=O)c(C)cn([C@H]6C[C@H](O)[C@@H](CO)O6)c5=O)[C@H](O)[C@]5(CC)C=CCN6CC[C@]43[C@@H]65)C2)C1` [VBL-3Am-ALK(4)-N3-THY], in that order: “B (B=20-40)” and “C (C>100)”.
The like results for `CC[C@]1(O)C[C@@H]2CN(CCc3c([nH]c4ccccc34)[C@@](C(=O)OC)(c3cc4c(cc3OC)N(C)[C@H]3[C@@](O)(C(=O)NCCCCCCn5c(=O)c(C)cn([C@H]6C[C@H](O)[C@@H](CO)O6)c5=O)[C@H](O)[C@]5(CC)C=CCN6CC[C@]43[C@@H]65)C2)C1` [VBL-3Am-ALK(6)-N3-THY] were, in that order, “A (A<20)” and “B (B=60-100)”.
On to `CC[C@]1(O)C[C@@H]2CN(CCc3c([nH]c4ccccc34)[C@@](C(=O)OC)(c3cc4c(cc3OC)N(C)[C@H]3[C@@](O)(C(=O)NCCOCCn5c(=O)c(C)cn([C@H]6C[C@H](O)[C@@H](CO)O6)c5=O)[C@H](O)[C@]5(CC)C=CCN6CC[C@]43[C@@H]65)C2)C1` [VBL-3Am-PEG(5)-N3-THY], for which, in assay [3], the “Ave. TK1 Kinase Act.” value is “A (A<20)”. Besides, the “Ave. MPA Act” value in the assay on tubulin was “C (C>100)”.
In the case of `CC[C@]1(O)C[C@@H]2CN(CCc3c([nH]c4ccccc34)[C@@](C(=O)OC)(c3cc4c(cc3OC)N(C)[C@H]3[C@@](O)(C(=O)NCCOCCOCCOCCn5c(=O)c(C)cn([C@H]6C[C@H](O)[C@@H](CO)O6)c5=O)[C@H](O)[C@]5(CC)C=CCN6CC[C@]43[C@@H]65)C2)C1` [VBL-3Am-PEG(11)-N3-THY], the “Ave. TK1 Kinase Act.” value in assay [3] was “B (B=20-40)”. The “Ave. MPA Act” value in the assay on tubulin was “A (A<60)”.
With `Nc1nc2c(ncn2C2CC(O)C(CO)C2)c(=O)[nH]1` (stereo not shown) [X = CH2, R3 = OH, R5 = H, B = Guanine], the dGK in assay [1] is given as 70.
Consider `Nc1nc(Cl)nc2c1ncn2[C@H]1C[C@H](O)[C@@H](CO)O1` [X = O, R3 = OH, R5 = H, B = 2-Cl-Adenine], for which the dGK in assay [1] was 180.
As to `Nc1nc2c(ncn2[C@H]2C[C@H](O)[C@@H](CO)O2)c(=O)[nH]1` [dGuo], the dGK in assay [1] is recorded as 50. Also, in assay [2], the dCK is 300.
Turning to `Nc1ncnc2c1ncn2C1CC(O)C(CO)O1` (stereo not shown) [dado], the dGK in assay [1] is recorded as 100.
Take `O=c1[nH]cnc2c1ncn2[C@H]1C[C@H](O)[C@@H](CO)O1` [dino]: the dGK in assay [1] was 100. Moreover, the dCK in assay [2] was 120.
